{"source": "patent US20200102295A1", "about": "“NITROCATECHOL DERIVATIVES AS COMT INHIBITORS” (BIAL - PORTELA & CA, S.A., priority 2005, published 2020)", "key": {"mouse liver COMT": {"target": "T1, mouse liver COMT (Mus musculus, UniProt O88587)", "T1 construct": "Aliquots of 0.5 ml of liver homogenates were preincubated; from tissue; host or cells: mouse liver homogenate (NMRI mice, dosed orally; ex vivo activity)", "T1 sequence (O88587 1-265)": "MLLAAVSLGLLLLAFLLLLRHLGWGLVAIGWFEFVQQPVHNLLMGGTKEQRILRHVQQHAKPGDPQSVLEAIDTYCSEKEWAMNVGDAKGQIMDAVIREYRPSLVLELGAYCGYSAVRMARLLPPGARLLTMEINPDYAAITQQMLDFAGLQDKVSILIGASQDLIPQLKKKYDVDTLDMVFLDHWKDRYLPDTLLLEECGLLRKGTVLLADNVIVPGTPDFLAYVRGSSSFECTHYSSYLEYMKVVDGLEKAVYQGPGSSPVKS", "test": "Mouse liver COMT activity after oral administration of test compounds", "assay_type": "in vivo", "conditions": "3 mg/kg oral, 3 h after administration"}, "[1]": {"system": "Neuro 2A mouse neuroblastoma cells", "test": "Cell toxicity: Neuro 2A cell viability (calcein-AM)", "assay_type": "cell-based", "conditions": "Neuro 2A cells, 30 μM, 24 h exposure"}, "rat liver COMT": {"target": "T2, rat liver COMT (Rattus norvegicus, UniProt P22734)", "T2 construct": "the organs were immediately removed and homogenised in 5 mM phosphate buffer of pH 7.8; from tissue; host or cells: rat liver homogenate (Wistar rats, dosed orally; ex vivo activity)", "T2 sequence (P22734 1-264)": "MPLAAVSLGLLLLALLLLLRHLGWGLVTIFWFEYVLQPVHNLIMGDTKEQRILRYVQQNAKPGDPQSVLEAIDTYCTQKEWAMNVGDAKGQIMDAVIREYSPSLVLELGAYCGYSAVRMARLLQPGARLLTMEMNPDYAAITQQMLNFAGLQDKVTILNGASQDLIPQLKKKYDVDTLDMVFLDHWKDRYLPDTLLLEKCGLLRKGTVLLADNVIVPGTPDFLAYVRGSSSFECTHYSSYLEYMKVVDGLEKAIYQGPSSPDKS", "test": "Rat liver COMT activity after oral administration of test compounds", "assay_type": "in vivo", "conditions": "3 mg/kg oral"}, "[2]": {"system": "plasma levels of L-DOPA and 3-O-methyl-L-DOPA (3-OMD)", "test": "Levels of L-DOPA and 3-O-methyl-L-DOPA in plasma of rats treated with L-DOPA plus benserazide", "assay_type": "in vivo, rat", "conditions": "3 mg/kg oral, 2 h after administration; for L-DOPA % increase (plasma level, % control) / 3-OMD % reduction (plasma level, % control): L-DOPA plus benserazide 1 h before plasma collection; for 3-OMD % reduction (plasma level, % control): given with minus sign; for L-Dopa/3-OMD: plasma ratio"}}}
{"smiles": "O=[N+]([O-])c1cc(-c2nc(Cc3ccc(C(F)(F)F)[n+]([O-])c3)no2)cc(O)c1O", "note": "[Compound 43, 3-Nitro-5-[3-(1′-oxy-6-trifluoromethyl-pyridine-3-ylmethyl)-[1,2,4]oxadiazol-5-yl]-benzene-1,2-diol]", "values": [{"measurement": "COMT activity (% of control)", "setting": "mouse liver COMT", "result": "27.2 % of control"}, {"measurement": "% of viable cells", "setting": "[1]", "result": 101.5, "unit": "%"}, {"measurement": "Rat Liver COMT activity (% control)", "setting": "rat liver COMT; 1 h after administration", "result": 16.1, "unit": "% control"}, {"measurement": "Rat Liver COMT activity (% control)", "setting": "rat liver COMT; 3 h after administration", "result": 30.6, "unit": "% control"}, {"measurement": "Rat Liver COMT activity (% control)", "setting": "rat liver COMT; 6 h after administration", "result": 64.3, "unit": "% control"}, {"measurement": "Rat Liver COMT activity (% control)", "setting": "rat liver COMT; 9 h after administration", "result": 77.9, "unit": "% control"}, {"measurement": "L-DOPA % increase (plasma level, % control)", "setting": "[2]", "result": 74.9, "unit": "%"}, {"measurement": "3-OMD % reduction (plasma level, % control)", "setting": "[2]", "result": "−48.3", "unit": "%"}, {"measurement": "L-Dopa/3-OMD", "setting": "[2]", "result": 3.4}]}
{"smiles": "O=[N+]([O-])c1cc(-c2nc(-c3ccc[n+]([O-])c3C(F)(F)F)no2)cc(O)c1O", "note": "[Compound 42, 3-Nitro-5-[3-(1-oxy-2-trifluoromethyl-pyridin-3-yl)-[1,2,4]oxadiazol-5-yl]-benzene-1,2-diol]", "values": [{"measurement": "COMT activity (% of control)", "setting": "mouse liver COMT", "result": "9.4 % of control"}, {"measurement": "% of viable cells", "setting": "[1]", "result": 96.4, "unit": "%"}, {"measurement": "Rat Liver COMT activity (% control)", "setting": "rat liver COMT; 1 h after administration", "result": 3.6, "unit": "% control"}, {"measurement": "Rat Liver COMT activity (% control)", "setting": "rat liver COMT; 3 h after administration", "result": 6.1, "unit": "% control"}, {"measurement": "Rat Liver COMT activity (% control)", "setting": "rat liver COMT; 6 h after administration", "result": 12.3, "unit": "% control"}, {"measurement": "Rat Liver COMT activity (% control)", "setting": "rat liver COMT; 9 h after administration", "result": 30.9, "unit": "% control"}, {"measurement": "L-DOPA % increase (plasma level, % control)", "setting": "[2]", "result": 30.7, "unit": "%"}, {"measurement": "3-OMD % reduction (plasma level, % control)", "setting": "[2]", "result": "−43.4", "unit": "%"}, {"measurement": "L-Dopa/3-OMD", "setting": "[2]", "result": 2.3}]}
